Assay type in all cases: cell-based
Experiment [1] deals with MMTV promoter luciferase reporter in HeLa cell line (GR transcription activation). The experiment in a line: MMTV transcription activation activity, luciferase reporter gene screening system (MMTV_GR transcription activation experiment). The note with it: Homo sapiens; for Emax: HeLa, maximum effect value, positive control 1000 nM dexamethasone, read-out: TA (MMTV transcription activation activity) Effect; for EC50: absolute EC50, HeLa MMTV-luciferase cells, 18 h, max concentration 1000 nM, read-out: TA (MMTV transcription activation activity) EC50. An excerpt: The promoter of mouse mammary tumor virus (MMTV) contains specific binding sites for activating GRs (GREs). To determine the activity of the compounds, a reporter gene (luciferase) was inserted after the MMTV promoter, and this construct was expressed in a stable manner in the genome of the HeLa cell line. MMTV promoter was activated by the test compounds to induce the expression of luciferase, and its activity was detected by luminescence measurement.
• [0442] 1) All the culture media were carefully aspirated, the cell layer was rinsed gently with an appropriate amount of DPBS, and then aspirated. • [0443] 2) An appropriate amount of 0.05% Typsine EDTA was added and incubated in a CO2 incubator for 3-5 minutes to digest the cells. • [0444] 3) The cells were resuspended with an appropriate amount of cell culture medium. • [0445] 4) The amount of cells required was calculated, and the cell concentration was 4×10^3 cells/well. • [0446] 5) The cell suspension was diluted with appropriate cell culture medium. • [0447] 6) Cell suspension was dispensed into a disposable sterile loading slot. • [0448] 7) Inoculated 30 µL per well into a 384-well plate. • [0449] 8) The cell plate was placed in a 37° C. 5% CO2 incubator for 18-24 hours.
Compounds were diluted with DMSO to 1 mM, 0.25 mM, 0.0625 mM, 0.015625 mM, 0.0039 mM, 0.0009765 mM, 0.000244 mM, 0.000061 mM, 0.00001526 mM and 0.0000038125 mM, then diluted 25-fold with serum culture medium treated with activated carbon, and finally 4x concentration compound experimental plate was obtained, prepared before use.
The final DMSO experimental concentration was 0.1%.
MMTV_GR transcription activation activity experiment • [0458] 1) Inoculated cells: Fresh cells were inoculated into 384 white transparent bottom experimental plates at 4×10^3 cells/30 µL/well, and incubated at 37° C. 5% CO2 incubator for 24 hours. • [0459] 2) Compound preparation: The compound plate was prepared before the experiment, and the reference compound (dexamethasone) and the test compound of 4x concentration were prepared. Finally, the experimental plate of 4x concentration compound was obtained. • [0460] 3) Added compound: 10 µL of 4x compound was transferred with Bravo and added to cell plate. Incubated for 18 hours in a 37° C. 5% CO2 incubator. • [0461] 4) 30 µL of Bright-Glo fluorescent detection reagent was transferred to the cell plate. • [0462] 5) Centrifugal incubation for 2 minutes. • [0463] 6) The fluorescence value was measured with the Envision plate reader.
Positive control: 1000 nM dexamethasone (0.1% DMSO)
Negative control: 0.1% DMSO
(§1) Test compound: Maximum concentration of 1000 nM, 4-fold dilution, 10 wells in total, repeated.
(§2) Dexamethasone: Maximum concentration of 1000 nM, 4-fold dilution, 10 wells in total, repeated.
The graphing software GraphPad Prism5 was used to create the concentration curves of the tested compounds and calculate the IC50 values.
In general terms: Reporter assays use an easily measured gene product as a stand-in for the process of interest.

For experiment [2], the system named is human peripheral blood mononuclear cells TNF-α. The experiment in a line: Repression of TNF-α in human peripheral blood mononuclear cells (LPS, ELISA). The following applies: PBMC, 3-fold diluted, 8 concentration (*). The method, then: Experimental purpose: To express the anti-inflammatory activity of the test compound at the cellular level according to the level of TNF-α in human peripheral blood mononuclear cells (hPBMC).
• [0488] 1) The frozen cells were quickly thawed by continuous stirring in a 37° C. water bath. • [0489] 2) 25 mL of fresh pre-heated thawed culture medium was added to a 50 mL centrifuge tube. Then the cells were added gently, drop by drop. • [0490] 3) Cells were centrifuged at 2000 rpm for 10 min (ascending speed: 9, descending speed: 1). • [0491] 4) The supernatant was discarded and the cell particles were resuspended in 25 mL of freshly pre-heated RPMI 1640 culture medium.
• [0493] 5) After thawing and resuscitating the suspended cells, the number of cells was counted and the total number of cells required for the experiment was calculated. • [0494] 6) The cell suspension was diluted with an appropriate volume of cell culture medium. • [0495] 7) The cell suspension was poured into a sterile disposable container. • [0496] 8) 100,000 cells/(100 µL) of cell suspension was transferred to each well of a 96-well plate. • [0497] 9) The cell plates were placed in humidified air, 5% CO2 incubator, 37° C. for 2 hours.
[…] In the second step, the serum-free culture medium was diluted 125 times, and the concentration of DMSO was 0.8%. Then 16.8 µL of the compound diluted in culture medium was transferred to a 100 µL cell plate, and the concentration of DMSO was 0.114%.
After adding the compound, the cell plates were incubated in a 37° C. 5% CO2 incubator for 1 hour.
In the first step, LPS was diluted with ultrapure water to a storage concentration of 1 mg/mL. In the second step, the storage concentration of LPS was diluted to 1 µg/mL in serum-free culture medium. In the third step, serum-free culture medium was 1666.666-fold diluted. Then 16.8 µL of LPS that has been diluted with culture medium was transferred to a 116.8 µL cell plate. At this time, the final concentration of DMSO was 0.1%. After adding LPS, the cell plate was put into a 37° C., 5% CO2 incubator and incubated for 18 hours.
• [0505] 1. The TNF-α antibody was diluted to 1× in the coating solution, and then 100 µL per well was added to a 96-well high-binding performance plate, and the plate was sealed with a membrane and placed at 4° C. for 18 hours. • [0506] 2. 2000 mL of wash buffer was prepared to 1x for later use.
• [0508] 3. After the plate was coated overnight, the coating solution was poured out and washed 3 times with 300 µL of washing buffer per well. • [0509] 4. After the plate was washed, 200 µL of sealing buffer was added to each well, and the plate was sealed with membrane. Incubated for one hour in a 25° C. incubator. • [0510] 5. The cell plates incubated for 18 hours were placed in a centrifuge for centrifugation, temperature: 25° C., speed: 2000 rpm, time: 10 min, ascending speed: 9, descending speed: 1. After centrifugation, 100 µL of cell supernatant from each well was transferred to a 3599 cell plate, and then placed in a 4° C. refrigerator for later use. • [0511] 6. The cell supernatant was diluted 40 times with sealing buffer and placed in a 4° C. refrigerator for later use, and the standard was also placed in a 4° C. refrigerator for later use. • [0512] 7. After the sealing was completed, the sealing solution was poured out and washed three times with 300 µL of washing buffer per well. • [0513] 8. The diluted cell supernatant samples and standards were added to the ELISA plate, and the plate was sealed with membrane. Then incubated for 2 hours in a 25° C. incubator. • [0514] 9. The liquid in the plate was poured out and washed 5 times with 300 µL of washing buffer per well. • [0515] 10. Antibodies were prepared and 100 µL was added to each well and the plate was sealed with sealing membrane. Then incubated for one hour in a 25° C. incubator. • [0516] 11. The liquid in the plate was poured out and washed 7 times with 300 µL of washing buffer per well. • [0517] 12. […]

For experiment [3], the system named is hMMP-1 promoter reporter gene in Hela cells (GR transcription repression). The experiment in a line: hMMP1 transcription repression activity, luciferase reporter gene screening system (hMMP1 GR transcription repression test). The note with it: Homo sapiens; for Emax: HeLa, maximum effect value, positive control 1000 nM dexamethasone, read-out: TR (hMMP1 transcription inhibition activity) Effect; for IC50: absolute IC50, HeLa hMMP-1/luciferase cells, 10 nM PMA, 18 h, max concentration 1000 nM, read-out: TR (hMMP1 transcription inhibition activity) IC50.
Excerpt: Human MMP-1 promoter region (containing two AP-1 binding sites and two PEA3 sites, a total of 249bp, GenBank catalog #AF023338) was cloned into the upstream of luciferase reporter gene. The hMMP-1 promoter reporter gene was constructed and transfected into Hela cells so that luciferase production could be easily detected. A stable recombinant hMMP-⅟luciferase cell line was used for the development and validation of this experiment.
• [0377] 1) All the culture media were carefully aspirated, and the cell layer was rinsed gently with an appropriate amount of DPBS, and then aspirated. • [0378] 2) An appropriate amount of 0.05% Typsine EDTA was added and incubated in a CO2 incubator for 3-5 minutes to digest the cells. • [0379] 3) The cells were resuspended with an appropriate amount of cell culture medium. • [0380] 4) The required amount of cells were calculated. The cell concentration was 5x10^3 cells/well. • [0381] 5) The cell suspension was diluted with appropriate cell culture medium. • [0382] 6) The cell suspension was dispensed into a disposable sterile loading slot. • [0383] 7) Inoculated 30µL per well into a 384-well plate. • [0384] 8) The cell plate was placed in a 37° C. 5% CO2 incubator for 18-24 hours.
The final DMSO concentration was 0.1%. PMA needs to be protected from light during use.
hMMP1 GR transcription repression activity test • [0395] 1) Inoculated cells: Fresh cells were inoculated into 384 white experimental plates at 5x10^3 cells/30µL/well, and incubated in a 5% CO2 incubator at 37° C. for 24 hours. • [0396] 2) Compound preparation: The compound plate was prepared before the experiment, and the reference compound (dexamethasone) and the tested compound of 10x concentration were prepared. Finally, the experimental plate of 10× concentration compound was obtained. • [0397] 3) Added compound: 3.3 µL of 10x compound was transferred with Bravo and added to cell plate. Incubated for 18 hours in a 5% CO2 incubator at 37° C. • [0398] 4) 30 µL of Bright-Glo fluorescent detection reagent was transferred to the cell plate. • [0399] 5) Centrifugal incubation for 2 minutes. • [0400] 6) The fluorescence value was measured with the Envision plate reader.
Positive Control: 10 nM PMA + 1000 nM dexamethasone (0.1% DMSO)
Negative control: 10 nM PMA (0.1% DMSO)
as §1, §2
The graphing software GraphPad Prism5 was used to create the concentration curves of the test compounds and calculate the IC50 values.

Structures are written as SMILES.

Here are results for nine compounds from US20230167068A1, “BENZOPYRAZOLE COMPOUND” (MEDSHINE DISCOVERY INC., priority 2019, published 2023).

For orientation: EC50 means the concentration giving half of the maximal effect. The IC50 is the midpoint of a concentration-inhibition curve. `C[C@H](NC(=O)C(C)(F)F)[C@H](Oc1ccc2c(cnn2-c2ccc3nncn3c2)c1)c1ccccc1` [WX022]: the Emax in experiment [1] turned out to be 101%; in experiment [2] (maximum effect value, test Top concentration 1000 nM) it was 90%. Moreover, the EC50 in experiment [1] was 1.59 nM. In addition, the half-inhibitory concentration (IC50) in experiment [2] (absolute IC50, test Top concentration 1000 nM, read-out: hPBMC IC50) was 2.42 nM.
With `CC(C)[C@H](NC(=O)C(C)(F)F)[C@H](Oc1ccc2c(cnn2-c2cnn(C)c2)c1)c1cc(F)cc(F)c1` [WX042], in experiment [1], the Emax was 43.5% and the 50% effective concentration (EC50) came out at 3.06 nM. Further, in experiment [3], the Emax was determined as 89% and the IC50 stood at 1.38 nM.
As for `C[C@H](NC(=O)C(C)(F)F)[C@H](Oc1ccc2c(cnn2-c2ccc3nccn3c2)c1)c1ccccc1` [WX012], in experiment [1], the Emax was 103% and the EC50 was determined as 0.019 nM.
Consider `CC(C)[C@H](NC(=O)C(C)(F)F)[C@H](Oc1ccc2c(cnn2-c2ccc3nnnn3c2)c1)c1ccccc1` [WX024], for which, in experiment [1], the Emax came to 31.5% and the EC50 is 78.2 nM. Besides, in experiment [3], the Emax stood at 54.5% and the concentration for half-maximal inhibition (IC50) came out at 32.5 nM.
For `CC(C)[C@H](NC(=O)C(C)(F)F)[C@H](Oc1ccc2c(cnn2-c2cnn(C)c2)c1)c1ccccc1` [WX045], in experiment [1], the Emax worked out at 55.6% and the EC50 turned out to be 12.9 nM. Further, in experiment [3], the Emax turned out to be 73.6% and the concentration for half-maximal inhibition (IC50) is 6.74 nM.
`C[C@H](NC(=O)C(C)(F)F)[C@H](Oc1ccc2c(cnn2-c2ccc3[nH]c(=O)oc3c2)c1)c1cc(F)cc(F)c1` [WX036]: in experiment [1], the Emax was found to be 80.1% and the EC50 came out at 2.31 nM. In experiment [3], the Emax amounted to 92.8% and the IC50 turned out to be 0.905 nM.
For `C[C@H](NC(=O)C(C)(F)F)[C@H](Oc1ccc2c(cnn2-c2ccn3cnnc3c2)c1)c1cc(F)cc(F)c1` [WX029], in experiment [1], the Emax amounted to 62.9% and the EC50 was found to be 21.4 nM. Further, in experiment [3], the Emax was found to be 93.8% and the IC50 worked out at 13.9 nM.
Regarding `Cc1nnc2ccc(-n3ncc4cc(O[C@H](c5cc(F)cc(F)c5)[C@H](C)NC(=O)C(C)(F)F)ccc43)cn12` [WX037], in experiment [1], the Emax stood at 73% and the EC50 is 12.6 nM. Also, in experiment [3], the Emax stood at 87.8% and the IC50 turned out to be 5.66 nM.
Consider `C[C@H](NC(=O)C(C)(F)F)[C@H](Oc1ccc2c(cnn2-c2cscn2)c1)c1ccccc1` [WX052], for which, in experiment [1], the Emax came to 57.8% and the EC50 was determined as 3.37 nM. In experiment [3], the Emax stood at 92.5% and the IC50 amounted to 0.97 nM.
